Experimental data as given in patent US20100105673A1, “SUBSTITUTED AMINOFURANONES AND THEIR USE” (priority 2006, published 2010).

Biological target: T1, HIV-1 protease wild type protein (Human immunodeficiency virus type 1 group M subtype B, UniProt P04585)
T1 construct: 20 μl of 0.2−1 nM HIV-1 protease wild type or mutant protein; purchased AscoProt Biotech, Prague, Czech Republic
Test: Biochemical Protease Assay
Procedure: For the determination of their in vitro activity on HIV protease the test substances are dissolved in DMSO and serially diluted. In each case 0.5 μl of substance dilution, 20 μl of 0.2−1 nM HIV-1 protease wild type or mutant protein (e.g. multiresistant isolate “35513”: L10I, I15V, L19I, K20R, E35D, M36I, R41K, I54V, L63P, H69K, A71V, T74P, I84V, L89M, L90M, 193L, AscoProt Biotech, Prague, Czech Republic) in buffer 1 (50 mM sodium acetate pH 4.9, 0.02% BSA, 0.1 mM EDTA, 0.5 mM DTT) and 20 μl of 8 μM substrate (M1865 from Bachem, Bubendorf, Switzerland; Matayoshi et al., Science 1990, 247, 954-8) in buffer 1 are added successively to a 384 well microtiter plate (Greiner, Frickenhausen, Germany), incubated for 60-180 minutes at 32° C. and the fluorescence is measured (e.g. Tecan Safire, 340 nm extinction, 520 nm emission). IC50 values are determined by graphical plotting of the substance concentration against the percentage inhibition.

SMILES | IC50
Cc1cc(-c2cccc(S(C)(=O)=O)c2)c(Cl)cc1C1=C(N)[C@@]2(CCCN(CC(=O)NCc3ccccc3)C2)OC1=O (single isomer, unassigned) [Example 82] | 11 nM
Cc1cc(-c2cccc(S(C)(=O)=O)c2)c(Cl)cc1C1=C(N)[C@@]2(CCCN(CC(=O)NCc3cccs3)C2)OC1=O (single isomer, unassigned) [Example 84] | 2.5 nM
Cc1cc(-c2cccc(NS(=O)(=O)CCN3CCOCC3)c2)c(Cl)cc1C1=C(N)C2(CCCCC2)OC1=O [Example 20] | 510 nM
Cc1cc(-c2cccc(O)c2)c(Cl)cc1C1=C(N)C2(CCCN(CC(=O)NCc3ccccc3)C2)OC1=O (stereo not drawn) [Example 27] | 14 nM
Cc1cc(-c2cccc(S(C)(=O)=O)c2)c(Cl)cc1C1=C(N)C2(CCCN(CC(=O)NCc3cccc(F)c3F)C2)OC1=O (stereo not drawn) [Example 51] | 2.6 nM
CCC(C)CNC(=O)CN1CCCC2(C1)OC(=O)C(c1cc(Cl)c(-c3cccc(S(C)(=O)=O)c3)cc1C)=C2N (stereo not drawn) [Example 79] | 85 nM
